From publication PMC11504387, “Synthesis and Biological Activity Assessment of 2-Styrylbenzothiazoles as Potential Multifunctional Therapeutic Agents” (Antioxidants, 2024)

Key:
[1] = test system: primary human monocytes; assay: Lipid mediator (LM) formation in primary human monocytes; format: cell-based; details: 10 µM; A23187 2.5 µM, 30 min
From the text: Monocytes and polymorphonuclear leukocytes (PMNL) were freshly isolated from human blood. Human blood and leukocyte concentrates were provided by the Institute for Transfusion Medicine of the University Hospital Jena (Thuringia, Germany). The protocols for experiments with human blood and blood cells were approved by the ethical commission of the Friedrich Schiller University of Jena. Following blood density centrifugation and separation of cell populations, peripheral blood mononuclear cells (PBMC) were left to adhere for 1 h to cell culture flasks (monocyte-enriched PBMC). Non-adherent cells were washed off from the adherent monocytes, before pre-incubating monocytes (5 × 10^6 cells/mL) with the test compounds for 10 min at 37 °C. LM formation was elicited with A23187 (2.5 µM) and CaCl2 (1 mM) over 30 min. The reaction was stopped with 1 mL of ice-cold methanol containing 10 µL of deuterium-labelled internal LM standards (200 nM d8-5S-HETE, d4-LTB4, d5-LXA4, d5-RvD2, d4-PGE2 and 10 µM d8-AA). LMs were extracted using Sep-Pak C18 35 cc Vac Cartridges (Waters, Milford, MA, USA) and analysed by UPLC-MS/MS as described by Pein et al..
The ability to modulate LM formation was screened in primary human monocytes expressing the enzymes required for PGE2, LTB4, and 12-HETE production (Figure 2A). Cells were pre-treated with the test compounds BZTst1–6 (10 µM) or the reference COX inhibitor diclofenac (1 µM) for 10 min prior to stimulation with the calcium ionophore A23187 (2.5 µM) for 30 min.

[2] = Photostability of O/W emulsions under solar simulator; format: physicochemical; details: for Photostability (classification, threshold 80%): O/W emulsion, solar irradiation; for %UVAPfeff.: residual UVAPF after solar irradiation; for %UVAPfeff. / %SPFeff.: O/W emulsion on PMMA; for %SPFeff.: residual in vitro SPF after solar irradiation
Protocol: Oil-in-water (O/W) emulsions containing individual filters were spread on PMMA sheet and irradiated with a solar simulator by applying different doses of UVA equivalent to an erythema effective radiant exposure of 100 J/m^2. Photostability was assessed by analysing the spectral transmittance, before and after irradiation, of the sunscreen thin film, measured before and after exposure from 290 to 400 nm. The residual percentages of SPF in vitro (%SPFeff.) and UVAPF (%UVAPFeff.) were calculated according to Equations (6) and (7), respectively. When the %SPFeff. and %UVAPFeff. are greater than or equal to 80, according to current regulations, a filter can be considered photostable [37].
To evaluate the effectiveness and safety profile of a sunscreen formulation, it is necessary to provide data on its photostability. Photodegradation data can be obtained by recording the pre- and post-irradiation transmittance spectra of PMMA plates with finger-coat formulations exposed to a dose of UVA capable of causing erythema. This method, established by Garoli et al., is used to determine photostability. The sun protection layer’s transmission in the range of 290–400 nm is recorded before and after exposure to sunlight, following the protocol.
The residual percentages of SPF in vitro (%SPFeff.) and UVAPf (%UVAPfeff.) were calculated using Equations (6) and (7) and are listed in Table 4. A filter can be classified as photostable if the %SPFeff. is greater than or equal to 80, according to regulatory standards. %SPFeff. = in vitro SPFafter/in vitro SPFbefore × 100(6) %UVAPfeff. = UVAPfafter/UVAPfbefore × 100(7) where SPFafter and SPFbefore are the SPF values calculated from the software after and before solar irradiation, and UVAPfafter and UVAPfbefore are the UVAPf values calculated from the software after and before solar irradiation.

[3] = test system: skin HaCat keratinocytes; assay: Cell growth inhibition assay, HaCat; format: cell-based, human; details: Homo sapiens, HaCaT; 24 h incubation; mean ± SD
Protocol: Cell growth inhibition analyses were performed on human melanoma Colo38 cells and skin HaCat keratinocytes. Human melanoma Colo38 cells were kindly given by Dr. Patrizio Giacomini (Laboratory of Immunology, Regina Elena Institute, Rome, Italy). HaCat cells were obtained from Istituto Zooprofilattico Sperimentale della Lombardia e dell’Emilia-Romagna, Brescia, Italy. Cells were seeded at 40,000 cells/mL and 25,000 cells/mL, respectively. Colo38 cells were maintained in RPMI 1640, supplemented with 10% foetal bovine serum (FBS), penicillin (100 Units/mL), and streptomycin (100 µg/mL). HaCat cells were maintained in DMEM, supplemented with 10% fatal bovine serum (FBS), penicillin (100 Units/mL), streptomycin (100 µg/mL) and glutamine (2 mM); the incubation was performed at 37 °C in a 5% CO2 atmosphere. Compounds were dissolved in DMSO to obtain 50 mM stock solutions and diluted before cell treatment in MeOH. The tested compounds were added at serial dilutions to the cell cultures (from 0.1 to 100 µM) and incubated for 24 h further. Cells were then harvested, suspended in physiological solution, and counted with a Z2 Coulter Counter (Coulter Electronics, Hialeah, FL, USA). The number of cells/mL and the IC50 values were determined when untreated cells were in the log phase of cell growth. Samples of vehicles and untreated cells were included in each plate. Cisplatin was used as positive control for the HaCat cells, while N1-(4-arylidene)-1H-(2-OH-4-N(Et)2-phenyl)-[d]imidazole-2-carbohydrazide was used as positive control for the Colo38 cell line.

SMILES	Photostability (classification, threshold 80%) [2]	%UVAPfeff. [2] [%]	%SPFeff. [2] [%]	melting point [°C]	12-HETE formation [1]	IC50 [3] [µM]
C(=C\c1nc2ccccc2s1)/c1ccccc1 [BZTst1, (E)-2-styrylbenzo[d]thiazole]	cannot be considered photostable	54.38	99.14	–	weak but significant inhibition	> 100
COc1ccc(/C=C/c2nc3ccccc3s2)cc1O [BZTst5, (E)-5-(2-(benzo[d]thiazol-2-yl)vinyl)-2-methoxyphenol]	–	106.30	100.00	–	–	86 ± 40.7
COc1cc(/C=C/c2nc3ccccc3s2)ccc1O [BZTst6, (E)-4-(2-(benzo[d]thiazol-2-yl)vinyl)-2-methoxyphenol]	photostable	80.75	93.59	–	–	> 100

Now from value to compound, other results behind:

Photostability (classification, threshold 80%) [2]	%UVAPfeff. [2] [%]	%SPFeff. [2] [%]	melting point [°C]	SMILES	12-HETE formation [1]	IC50 [3] [µM]
–	95.96	104.43	–	Oc1ccc(/C=C/c2nc3ccccc3s2)cc1 [BZTst2, (E)-4-(2-(benzo[d]thiazol-2-yl)vinyl)phenol]	–	85.8 ± 17.9
–	152.12	103.21	144 to 148	COc1ccc(/C=C/c2nc3ccccc3s2)cc1 [BZTst3, (E)-2-(4-methoxystyryl)benzo[d]thiazole]	–	> 100
–	101.57	104.02	–	Oc1ccc(/C=C/c2nc3ccccc3s2)cc1O [BZTst4, (E)-4-(2-(benzo[d]thiazol-2-yl)vinyl)benzene-1,2-diol]	highly significant inhibition	80.2 ± 24.7
